System: Japanese white rabbits
Experiment: Test Example 5: combination use test in cholesterol-loaded rabbit model (plasma cholesterol)
Format: in vivo
Conditions: 1 mg/kg in high cholesterol diet, from grouping to the 4th day
Experimental: Japanese white rabbits (male, 19 weeks of age, JW, purchased from Kitayama Labes Co., Ltd.) were fed previously in such a way that they were fed a high cholesterol diet (0.3% cholesterol+3% peanut oil-added RC-4, Product of Oriental Yeast Co., Ltd.) of 70 g/day under limited feeding for one day. The rabbits thus fed were used as a cholesterol-loaded rabbit model, and the grouping of such model was carried out in such a way that there might be no variation in the amount of plasma cholesterol among each group (five rabbits/group). […] The rabbits were fed 70 g of each diet every morning. Blood was collected from auricular artery 6 hours after the feeding on the 4th day of the administration, and cholesterol level in plasma was assayed. In the table, increased amount of plasma cholesterol during from the time of grouping to the 4th day was shown.

CCC(C)(C)C(=O)O[C@H]1C[C@@H](C)C=C2C=C[C@H](C)[C@H](CC[C@@H]3C[C@@H](O)CC(=O)O3)[C@H]21 [Simvastatin, simvastatin, reference compound]
Increased amount of total cholesterol: 48.6 mg/dL

From patent US7625948B2, “Ester compound and medicinal use thereof” (Japan Tobacco Inc., priority 2002, dated 2009)
